In patent US5502214A, “1,2-benzoquinones and methods for making and using same” (priority 1993, dated 1996):
Where two headings read alike, the source gives them in different places.

How the values were obtained:
L1210 leukemia = assay: In vivo antitumor test, L1210 leukemia implanted i.p. in DBA mice; conditions: for SURVIVAL: lifespan post tumor cell inoculation; for % ILS: vs untreated controls
Description: L1210 leukemia (10^6) cells were implanted intraperitoneally in DBA mice (Taconic Farms, Germantown, N.Y.) on day 0. Treatment with each drug was carried out daily for 5 days. The drugs were administered intraperitoneally at the doses shown on Table II below. Each treatment group had six animals and the experiment was carried out twice. The percent increase-in-lifespan (% ILS) is for the treated subjects compared with the untreated controls.
^a Drugs were administered i.p. daily on days 1-5.
^b Lifespan of the animals post tumor cell innoculation.

[1] = tested on: EMT-6 mouse mammary tumor cells; assay: In vitro cytotoxicity screen (colony formation); format: cell-based; conditions: 1 hour drug exposure at 37° C., EMT-6 colony formation
Description: Cell Line and Culture. The cell line used in the screen was EMT-6 mouse mammary tumor cells in culture that were maintained in exponential growth in Waymouth's medium (I.S.I. Corp., Chicago, Ill.), supplemented with 15% newborn calf serum, penicillin (100 units/ml), and streptomycin (100 μg/ml) (Grand Island Biological Co., Grand Island, N.Y.). The doubling time of these cultures, growing at 37° C. in a 5% CO2 /95% air atmosphere, was 16-19 hours. In vitro plating efficiencies of control cultures were 65-80%.
Production of Hypoxia. To produce hypoxia, plastic flasks, containing exponentially growing monolayers of tumor cells in complete medium plus serum, were fitted with sterile rubber septums and exposed to a continuously flowing 95% N2 /5% CO2 humidified atmosphere for 4 hours at 37° C. as described by B. A. Teicher et al., Int. J. Radiat. Oncol. Biol. Phy., 11:937-940 (1985); and B. A. Teicher et al., Cancer Res., 41:73-81 (1981). Parallel flasks were maintained in 95% air/5% CO2. At the end of 4 hours, the drug specified in Table I below was added to the flasks by injection through the rubber septum without disturbing the hypoxia. […]
Drug Treatments. Exponentially growing cells were exposed to varying concentrations of the drugs specified in Table I below for 1 hour at 37° C. Non-drug-treated controls were handled identically. Drugs were prepared in sterile phosphate-buffered saline immediately before use and added to the cells in a small volume (50-100 μl). […] After treatment, the medium was removed, and the cultures were washed twice with phosphate buffered saline and suspended by trypsinization.
Cell Viability Measurements. Cell viability was measured by the ability of single cells to form colonies in vitro, as described by B. A. Teicher et al., Int. J. Radiat. Oncol. Biol. Phys., 11:937-940 (1985); and B. A. Teicher et al., Cancer Res., 41:73-81 (1981). Following treatment, suspensions of known cell numbers were plated in plastic Petri dishes and allowed to grow in a 37° C. incubator under standard culture conditions for 8-10 days. After this time interval, macroscopic colonies were stained with crystal violet in methanol containing 3.7% formaldehyde and were counted manually. Each experiment was repeated 3 times and each data point per experiment represents the results of 3 different dilutions of cells plated in triplicate.

[2] = 1.00 mg/kg i.p. daily on days 1-5
[3] = 2.50 mg/kg i.p. daily on days 1-5
[4] = 5.00 mg/kg i.p. daily on days 1-5
[5] = 10.00 mg/kg i.p. daily on days 1-5
[6] = Mus musculus, EMT6, 1 h, Hypoxia, read-out: IC50
[7] = Mus musculus, EMT6, 1 h, Normal oxygenation, read-out: IC50
[8] = Mus musculus, EMT6, Normal oxygenation, read-out: IC90
[9] = 0.50 mg/kg i.p. daily on days 1-5
[10] = 1.25 mg/kg i.p. daily on days 1-5
[11] = 1.50 mg/kg i.p. daily on days 1-5
[12] = 2.00 mg/kg i.p. daily on days 1-5
[13] = Mus musculus, EMT6, 1 h, Hypoxia
[14] = Mus musculus, EMT6, 1 h, Normal oxygenation

SMILES | SURVIVAL (L1210 leukemia; [2]) [days] | % ILS (L1210 leukemia; [2]) [%] | SURVIVAL (L1210 leukemia; [3]) [days] | % ILS (L1210 leukemia; [3]) | SURVIVAL (L1210 leukemia; [4]) [days] | % ILS (L1210 leukemia; [4]) [%] | SURVIVAL (L1210 leukemia; [5]) [days] | % ILS (L1210 leukemia; [5]) | IC90 ([1]; Hypoxia, read-out: IC90) [µM] | IC50 [1, 6] [µM] | IC50 [1, 7] [µM] | IC90 [1, 8] [µM] | further results
O=C1C=C(N2CCC2)C(N2CCC2)=CC1=O [4,5-Azetidinyl-1,2-Benzoquinone, 4,5-azetidinyl-1,2-benzoquinone] | 8.0 | 8 | 7.8 | 5% | 7.8 | 5 | 6.4 | toxic | > 500 | 400 | 500 | > 500 | 
O=C1C=C(N2CC2)C(N2CC2)=CC1=O [4,5-Aziridinyl-1,2-Benzoquinone, 4,5-aziridinyl-1,2-benzoquinone] | 13.4 | 81 | 6.0 | toxic |  |  |  |  |  |  |  |  | SURVIVAL (L1210 leukemia; [9]): 12.6 days; % ILS (L1210 leukemia; [9]): 70%; SURVIVAL (L1210 leukemia; [10]): 13.6 days; % ILS (L1210 leukemia; [10]): 84%; SURVIVAL (L1210 leukemia; [11]): 13.8 days; % ILS (L1210 leukemia; [11]): 86%; SURVIVAL (L1210 leukemia; [12]): 11.8 days; % ILS (L1210 leukemia; [12]): 59%; IC50 [1, 13]: 0.2 µM; IC90 [1, 13]: 1 µM; IC50 [1, 14]: 0.4 µM; IC90 [1, 14]: 1.1 µM
COC1=CC(=O)C(=O)C=C1OC [4,5-Methoxy-1,2-Benzoquinone, 4,5-Dimethoxy-1,2-benzoquinone, reference compound] |  |  |  |  |  |  |  |  | > 500 | > 500 | 500 | > 500 | 
O=C1C=C(N2CCCC2)C(N2CCCC2)=CC1=O [4,5-Pyrrolidinyl-1,2-Benzoquinone, 4,5-pyrrolidinyl-1,2-benzoquinone] | 8.0 | 8 | 8.0 | 8% | 7.6 | 3 | 6.3 | toxic | > 500 | > 500 | > 500 | > 500 | 
CCN(CC)C1=CC(=O)C(=O)C=C1N(CC)CC [4,5-bis-(Diethylamino)-1,2-Benzoquinone, 4,5-bis-(diethylamino)-1,2-benzoquinone] | 7.8 | 5 | 8.4 | 14% | 8.6 | 16 | 7.8 | 5% | > 500 | 400 | 500 | > 500 | 
COC1=CC(=O)C(=O)C=C1NCCCl [4-chloroethylamino-5-methoxy-1,2-benzoquinone] |  |  |  |  |  |  |  |  |  |  |  |  | IC50 [1, 13]: 110 µM; IC90 [1, 13]: 190 µM; IC50 [1, 14]: 125 µM; IC90 [1, 14]: 455 µM
CCOC(=O)NC1=C(N2CC2)C(=O)C(NC(=O)OCC)=C(N2CC2)C1=O [AZQ, 3,6-bis(ethylcarboxyamino)-2,5-diaziridinyl-1,4-benzoquinone, reference compound] |  |  |  |  |  |  |  |  |  | 7.5 | 5 |  | IC90 ([1]; Mus musculus, EMT6, 1 h, Hypoxia, read-out: IC90): 17.5 µM; IC90 ([1]; Mus musculus, EMT6, 1 h, Normal oxygenation, read-out: IC90): 15.5 µM
